Assay results: patent US8227240B2, “Systems for screening pharmaceutical chemicals” (The Washington University, priority 2001, dated 2012)

How the values were obtained:
[1] = tested on: animals; conditions: in vivo; cited from earlier work
[2] = target: MMPs; conditions: purified system; cited from earlier work
[3] = tested on: cardiac fibroblasts; experiment: Mechanical tests of tissue model rings cultured with MMP inhibitor; assay type: cell-based; conditions: 50 μM GM6001 for 6 days
Experimental: The tissue models made using cardiac fibroblasts are incubated with 50 .μM GM6001 for 6 days. The tissue culture medium is replenished every other day with fresh medium containing GM6001. The tissue model rings were subjected to mechanical tests as described above.

Structure (SMILES): CNC(=O)[C@H](Cc1c[nH]c2ccccc12)NC(=O)[C@@H](CC(=O)NO)CC(C)C [GM6001, N-[(2R)-2-(Hydroxamid-ocarbonylmethyl)-4-methylpentanoyl]-L-tryptophan methylamide]
- concentration of inhibitor at which effects in animals can be observed [1]: sub mmol/l
- Ki values for different MMPs [2]: around nmol/l
- mechanical properties of tissue model rings compared to controls [3]: significant reduction
